Drawing on patent US20080200454A1, “CARBON-LINKED TETRAHYDRO-PYRAZOLO-PYRIDINE MODULATORS OF CATHEPSIN S” (priority 2007, published 2008), this text covers IC50 for 22 molecules.

SMILES strings stand for the structures.

One test deals with Recombinant human cathepsin S (CatS) (Homo sapiens, UniProt P25774). Description: Recombinant human cathepsin S (CatS) inhibition assay, fluorogenic substrate Z-Valine-Valine-Arginine-AMC.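 Note: Baculovirus-expressed CatS in pH 5.0 sodium acetate buffer with DTT and NaCl, fluorescence read each minute over 20 min, inhibition derived from rate slope.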
Recombinant human cathepsin S (CatS), sequence (P25774 115-331): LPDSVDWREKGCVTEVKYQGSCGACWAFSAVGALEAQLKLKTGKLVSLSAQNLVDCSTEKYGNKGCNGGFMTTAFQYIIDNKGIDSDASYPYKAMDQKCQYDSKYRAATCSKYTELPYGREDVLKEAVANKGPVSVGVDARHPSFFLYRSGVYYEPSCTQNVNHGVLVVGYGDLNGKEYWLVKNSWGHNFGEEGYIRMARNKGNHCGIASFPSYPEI
Settings: not given
On to `CS(=O)(=O)N1CCc2c(c(-c3ccc(Cl)c(CCc4ccc(F)cc4F)c3)nn2CCCN2CCOCC2)C1` [Example 59, 3-{4-Chloro-3-[2-(2,4-difluoro-phenyl)-ethyl]-phenyl}-5-methanesulfonyl-1-(3-morpholin-4-yl-propyl)-4,5,6,7-tetrahydro-1H-pyrazolo[4,3-c]pyridine], for which the IC50 (usually the concentration that gives 50% inhibition) worked out at 660 nM. Same read-out and setting: the result for `CC(=O)NC1CCN(CC(O)Cn2nc(-c3ccc(Cl)c(C#Cc4ccc(CNCc5ccc(Cl)cc5)cc4)c3)c3c2CCN(S(C)(=O)=O)C3)CC1` (stereo not shown) [Example 362, N-(1-{3-[3-(4-Chloro-3-{[4-({[(4-chlorophenyl)methyl]amino}methyl)phenyl]ethynyl}phenyl)-5-(methylsulfonyl)-4,5,6,7-tetrahydro-1H-pyrazolo[4,3-c]pyridin-1-yl]-2-hydroxypropyl}piperidin-4-yl)acetamide] reads 50 nM. Still for that read-out and setting: the result for `CC(C)(C)OC(=O)N1CCc2ccc(C#Cc3cc(-c4nn(CC(O)CN5CCC(C(N)=O)CC5)c5c4CN(S(C)(=O)=O)CC5)ccc3Cl)cc2C1` (stereo not shown) [Example 373, 1,1-Dimethylethyl 7-({5-[1-{3-[4-(aminocarbonyl)piperidin-1-yl]-2-hydroxypropyl}-5-(methylsulfonyl)-4,5,6,7-tetrahydro-1H-pyrazolo[4,3-c]pyridin-3-yl]-2-chlorophenyl}ethynyl)-3,4-dihydroisoquinoline-2(1H)-carboxylate] reads 170 nM; that for `COC(=O)Cc1cccc(C#Cc2cc(-c3nn(CCCN4CCOCC4)c4c3CN(S(C)(=O)=O)CC4)ccc2Cl)c1` [Example 11, (3-{2-Chloro-5-[5-methanesulfonyl-1-(3-morpholin-4-yl-propyl)-4,5,6,7-tetrahydro-1H-pyrazolo[4,3-c]pyridin-3-yl]-phenylethynyl}-phenyl)-acetic acid methyl ester], 2600 nM. For `CS(=O)(=O)N1CCc2c(c(-c3ccc(Cl)c(CCCN4CCCCC4)c3)nn2CCCN2CCC(N3CCCC3=O)CC2)C1` [Example 102, 1-[1-(3-{3-[4-Chloro-3-(3-piperidin-1-yl-propyl)-phenyl]-5-methanesulfonyl-4,5,6,7-tetrahydro-pyrazolo[4,3-c]pyridin-1-yl}-propyl)-piperidin-4-yl]-pyrrolidin-2-one], the half-maximal inhibitory concentration (IC50) came to 840 nM.

Turning to `CS(=O)(=O)N1CCc2c(c(-c3ccc(Cl)c(CCCNC4CCCC4)c3)nn2CCCN2CCC(N3CCCC3=O)CC2)C1` [Example 108, 1-[1-(3-{3-[4-Chloro-3-(3-cyclopentylamino-propyl)-phenyl]-5-methanesulfonyl-4,5,6,7-tetrahydro-pyrazolo[4,3-c]pyridin-1-yl}-propyl)-piperidin-4-yl]-pyrrolidin-2-one], the half-maximal inhibitory concentration (IC50) worked out at 660 nM. Same read-out and setting: the result for `CS(=O)(=O)N1CCc2c(c(-c3ccc(Cl)c(CCCNS(=O)(=O)c4ccc(Cl)c(Cl)c4)c3)nn2CCCN2CCOCC2)C1` [Example 82, 3,4-Dichloro-N-(3-{2-chloro-5-[5-methanesulfonyl-1-(3-morpholin-4-yl-propyl)-4,5,6,7-tetrahydro-1H-pyrazolo[4,3-c]pyridin-3-yl]-phenyl}-propyl)-benzenesulfonamide] reads 6100 nM. Take `CS(=O)(=O)N1CCc2c(c(-c3ccc(Cl)c(CCCNS(=O)(=O)c4ccccc4Cl)c3)nn2CCCN2CCC(N3CCCC3=O)CC2)C1` [Example 95, 2-Chloro-N-{3-[2-chloro-5-(5-methanesulfonyl-1-{3-[4-(2-oxo-pyrrolidin-1-yl)-piperidin-1-yl]-propyl}-4,5,6,7-tetrahydro-1H-pyrazolo[4,3-c]pyridin-3-yl)-phenyl]-propyl}-benzenesulfonamide]: the concentration for half-maximal inhibition (IC50) was 1150 nM. On the same count and under the same terms, the result for `CC(C)(C)OC(=O)N1C[C@@H]2C[C@H]1CN2CCCn1nc(-c2ccc(Cl)c(C#Cc3ccc(CNCc4ccc(Cl)cc4)cc3)c2)c2c1CCN(S(C)(=O)=O)C2` [Example 491, 1,1-Dimethylethyl (1S,4S)-5-{3-[3-(4-chloro-3-{[4-({[(4-chlorophenyl)methyl]amino}methyl)phenyl]ethynyl}phenyl)-5-(methylsulfonyl)-4,5,6,7-tetrahydro-1H-pyrazolo[4,3-c]pyridin-1-yl]propyl}-2,5-diazabicyclo[2.2.1]heptane-2-carboxylate] reads 120 nM. For the molecule `CS(=O)(=O)N1CCc2c(c(-c3ccc(Cl)c(C#CCN4CCS(=O)(=O)CC4)c3)nn2CCCN2CCOCC2)C1` [Example 50, 3-{4-Chloro-3-[3-(1,1-dioxo-1 A^6-thiomorpholin-4-yl)-prop-1-ynyl]-phenyl}-5-methanesulfonyl-1-(3-morpholin-4-yl-propyl)-4,5,6,7-tetrahydro-1H-pyrazolo[4,3-c]pyridine], the concentration for half-maximal inhibition (IC50) stood at 6800 nM. With `CS(=O)(=O)N1CCc2c(c(-c3ccc(C(F)(F)F)c(CCCNS(=O)(=O)c4ccccc4)c3)nn2CC(O)CN2CCOCC2)C1` (stereo not shown) [Example 306, N-(3-{5-[1-(2-Hydroxy-3-morpholin-4-ylpropyl)-5-(methylsulfonyl)-4,5,6,7-tetrahydro-1H-pyrazolo[4,3-c]pyridin-3-yl]-2-(trifluoromethyl)phenyl}propyl)benzenesulfonamide], the 50% inhibitory concentration (IC50) turned out to be 3220 nM.

In the case of `CS(=O)(=O)N1CCc2c(c(-c3ccc(Cl)c(C#Cc4ccc5c(c4)CC(CO)NC5)c3)nn2CCCN2CCOCC2)C1` (stereo not shown) [Example 206, [6-({2-Chloro-5-[5-(methylsulfonyl)-1-(3-morpholin-4-ylpropyl)-4,5,6,7-tetrahydro-1H-pyrazolo[4,3-c]pyridin-3-yl]phenyl}ethynyl)-1,2,3,4-tetrahydroisoquinolin-3-yl]methanol], the IC50 stood at 210 nM.

`CS(=O)(=O)N1CCc2c(c(-c3ccc(Cl)c(C#Cc4ccc(CNC(=O)c5ccccc5)cc4)c3)nn2CCCN2CCOCC2)C1` [Example 73, N-(4-{2-Chloro-5-[5-methanesulfonyl-1-(3-morpholin-4-yl-propyl)-4,5,6,7-tetrahydro-1H-pyrazolo[4,3-c]pyridin-3-yl]-phenylethynyl}-benzyl)-benzamide]: the IC50 amounted to 350 nM.

Staying with this test, now noted: CatS IC50.
For the molecule `NC(=O)C(=O)N1CCc2c(c(-c3ccc(Cl)c(C#Cc4ccc(Cl)c(C(=O)N5CCCNCC5)c4)c3)nn2CCCN2CCSCC2)C1` [Example 569, 2-[3-(4-Chloro-3-{[4-chloro-3-(1,4-diazepan-1-ylcarbonyl)phenyl]ethynyl}phenyl)-1-(3-thiomorpholin-4-ylpropyl)-1,4,6,7-tetrahydro-5H-pyrazolo[4,3-c]pyridin-5-yl]-2-oxoacetamide], the half-maximal inhibitory concentration (IC50) came out at 150 nM.

Consider `CS(=O)(=O)N1CCc2c(c(-c3ccc(Cl)c(C#Cc4ccc5c(c4)CCNCC5)c3)nn2CCCN2CCOCC2)C1` [Example 375, 7-({2-Chloro-5-[5-(methylsulfonyl)-1-(3-morpholin-4-ylpropyl)-4,5,6,7-tetrahydro-1H-pyrazolo[4,3-c]pyridin-3-yl]phenyl}ethynyl)-2,3,4,5-tetrahydro-1H-3-benzazepine], for which the IC50 turned out to be 410 nM.

For `C[C@H]1COCCN1CCCn1nc(-c2ccc(Cl)c(C#Cc3ccc(Cl)c(C(=O)N4CCCNCC4)c3)c2)c2c1CCN(C(=O)C(N)=O)C2` [Example 575, 2-[3-(4-Chloro-3-{[4-chloro-3-(1,4-diazepan-1-ylcarbonyl)phenyl]ethynyl}phenyl)-1-{3-[(3S)-3-methylmorpholin-4-yl]propyl}-1,4,6,7-tetrahydro-5H-pyrazolo[4,3-c]pyridin-5-yl]-2-oxoacetamide], the half-inhibitory concentration (IC50) was 170 nM. The same measure, in the same setting: with `C[C@H]1COCCN1CCCn1nc(-c2ccc(Cl)c(C#Cc3ccc4c(c3)CN(CC(F)(F)F)CC4)c2)c2c1CCN(S(C)(=O)=O)C2` [Example 501, 7-({2-Chloro-5-[1-{3-[(3S)-3-methylmorpholin-4-yl]propyl}-5-(methylsulfonyl)-4,5,6,7-tetrahydro-1H-pyrazolo[4,3-c]pyridin-3-yl]phenyl}ethynyl)-2-(2,2,2-trifluoroethyl)-1,2,3,4-tetrahydroisoquinoline] the figure was 750 nM; with `CN(Cc1ccc(Cl)cc1)Cc1ccc(C#Cc2cc(-c3nn(CCCN4CCSCC4)c4c3CN(S(C)(=O)=O)CC4)ccc2Cl)cc1` [Example 503, 1-[4-({2-Chloro-5-[5-(methylsulfonyl)-1-(3-thiomorpholin-4-ylpropyl)-4,5,6,7-tetrahydro-1H-pyrazolo[4,3-c]pyridin-3-yl]phenyl}ethynyl)phenyl]-N-[(4-chlorophenyl)methyl]-N-methylmethanamine], 660 nM; with `CS(=O)(=O)N1CCc2c(c(-c3ccc(Cl)c(C#Cc4ccc(CNCc5ccccc5)c(Cl)c4)c3)nn2CCCN2CCOCC2)C1` [Example 545, 1-[2-Chloro-4-({2-chloro-5-[5-(methylsulfonyl)-1-(3-morpholin-4-ylpropyl)-4,5,6,7-tetrahydro-1H-pyrazolo[4,3-c]pyridin-3-yl]phenyl}ethynyl)phenyl]-N-(phenylmethyl)methanamine], 270 nM. On the same count and under the same terms, with `CC(C)CNCc1cccc(C#Cc2cc(-c3nn(CCCN4CCOCC4)c4c3CN(S(C)(=O)=O)CC4)ccc2Cl)c1` [Example 520, N-{[3-({2-Chloro-5-[5-(methylsulfonyl)-1-(3-morpholin-4-ylpropyl)-4,5,6,7-tetrahydro-1H-pyrazolo[4,3-c]pyridin-3-yl]phenyl}ethynyl)phenyl]methyl}-2-methylpropan-1-amine] the figure was 440 nM; with `NC(=O)C(=O)N1CCc2c(c(-c3ccc(Cl)c(C#Cc4ccc(Cl)c(C(=O)N5CCCC5)c4)c3)nn2CCCN2CCSCC2)C1` [Example 567, 2-[3-(4-Chloro-3-{[4-chloro-3-(pyrrolidin-1-ylcarbonyl)phenyl]ethynyl}phenyl)-1-(3-thiomorpholin-4-ylpropyl)-1,4,6,7-tetrahydro-5H-pyrazolo[4,3-c]pyridin-5-yl]-2-oxoacetamide], 160 nM. The same measure, in the same setting: the result for `CS(=O)(=O)N1CCc2c(c(-c3ccc(Cl)c(C#Cc4ccc5cc[nH]c5n4)c3)nn2CCCN2CCOCC2)C1` [Example 482, 3-[4-Chloro-3-(1H-pyrrolo[2,3-b]pyridin-6-ylethynyl)phenyl]-5-(methylsulfonyl)-1-(3-morpholin-4-ylpropyl)-4,5,6,7-tetrahydro-1H-pyrazolo[4,3-c]pyridine] reads 180 nM.
